# Biological target: DNA gyrase (Escherichia coli, UniProt P0AES4+P0AES6)
# Experiment: Inhibition of Escherichia coli DNA gyrase supercoiling using relaxed pNO1 as substrate measured after 30 mins by SybrGOLD staining based fluorescence analysis
# Type: protein-complex assay
row,IC50 [nM],SMILES
1,13,Cc1[nH]c(C(=O)/N=c2\sc3cc(NC(=O)C(=O)O)ccc3n2Cc2cccc(C(=O)O)c2)c(Cl)c1Cl
2,43,Cc1[nH]c(C(=O)N(Cc2ccccc2)c2nc3ccc(NC(=O)C(=O)O)cc3s2)c(Cl)c1Cl
3,1000,Cc1[nH]c(C(=O)N(Cc2ccc(C(=O)O)cc2)c2nc3ccc(NC(=O)C(=O)O)cc3s2)c(Cl)c1Cl
4,320,Cc1[nH]c(C(=O)/N=c2\sc3cc(NC(=O)C(=O)O)ccc3n2Cc2ccc(C(=O)O)cc2)c(Cl)c1Cl
5,54000,CC(=O)Nc1ccc2nc(N(Cc3cccc(C(=O)O)c3)C(=O)c3[nH]c(C)c(Cl)c3Cl)sc2c1
6,600,CC(=O)Nc1ccc2c(c1)s/c(=N\C(=O)c1[nH]c(C)c(Cl)c1Cl)n2Cc1ccc(C(=O)O)cc1
7,18,Cc1[nH]c(C(=O)/N=c2\sc3cc(NC(=O)C(=O)O)ccc3n2Cc2ccccc2)c(Cl)c1Cl
8,620,CC(=O)Nc1ccc2c(c1)s/c(=N\C(=O)c1[nH]c(C)c(Cl)c1Cl)n2CCc1ccccc1
9,2200,Cc1[nH]c(C(=O)N(CCc2ccccc2)c2nc3ccc(NC(=O)C(=O)O)cc3s2)c(Cl)c1Cl
10,35000,CC(=O)Nc1ccc2nc(N(Cc3ccc(C(=O)O)cc3)C(=O)c3[nH]c(C)c(Cl)c3Cl)sc2c1
11,5800,CC(=O)Nc1ccc2c(c1)s/c(=N\C(=O)c1[nH]c(C)c(Cl)c1Cl)n2Cc1ccccc1
12,90000,CC(=O)Nc1ccc2nc(N(Cc3ccccc3)C(=O)c3[nH]c(C)c(Cl)c3Cl)sc2c1
13,2800,Cc1[nH]c(C(=O)N(Cc2cccc(C(=O)O)c2)c2nc3ccc(NC(=O)C(=O)O)cc3s2)c(Cl)c1Cl
14,162000,CC(=O)Nc1ccc2nc(N(CCc3ccccc3)C(=O)c3[nH]c(C)c(Cl)c3Cl)sc2c1

row,SMILES,IC50 [nM]
1,CC(=O)Nc1ccc2c(c1)s/c(=N\C(=O)c1[nH]c(C)c(Cl)c1Cl)n2Cc1cccc(C(=O)O)c1,100
2,Cc1[nH]c(C(=O)/N=c2\sc3cc(NC(=O)C(=O)O)ccc3n2CCc2ccccc2)c(Cl)c1Cl,100
